Assay results published in publication PMC8645336, “Benchmarking a highly selective USP30 inhibitor for enhancement of mitophagy and pexophagy” (Life Science Alliance, 2021).

Legend:
Experiment in all cases: biochemical
Parameters in all cases: Ubiquigent DUB profiler selectivity panel, remaining enzyme activity as % of control
Conditions in all cases: read-out: % of control remaining
[1] = target: T1, Ataxin3 (Homo sapiens, UniProt P54252)
T1 construct: gene ATXN3
Method in brief: (§1)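 In YFP-PRKN-overexpressing hTERT-RPE1 cells, 1 h antimycin A plus oligomycin A (1 μM each) with CMPD-39, then Western blot of TOMM20 ubiquitylation. Target engagement: 2 h compound, then 10 min HA-Ub-PA at 37°C, read as USP30 shift. DUB panel (>40 enzymes) screened at 1-100 μM.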

[2] = target: T2, USP17 (Homo sapiens, UniProt Q6R6M4)
T2 construct: gene USP17L2
T2 sequence (Q6R6M4 1-530): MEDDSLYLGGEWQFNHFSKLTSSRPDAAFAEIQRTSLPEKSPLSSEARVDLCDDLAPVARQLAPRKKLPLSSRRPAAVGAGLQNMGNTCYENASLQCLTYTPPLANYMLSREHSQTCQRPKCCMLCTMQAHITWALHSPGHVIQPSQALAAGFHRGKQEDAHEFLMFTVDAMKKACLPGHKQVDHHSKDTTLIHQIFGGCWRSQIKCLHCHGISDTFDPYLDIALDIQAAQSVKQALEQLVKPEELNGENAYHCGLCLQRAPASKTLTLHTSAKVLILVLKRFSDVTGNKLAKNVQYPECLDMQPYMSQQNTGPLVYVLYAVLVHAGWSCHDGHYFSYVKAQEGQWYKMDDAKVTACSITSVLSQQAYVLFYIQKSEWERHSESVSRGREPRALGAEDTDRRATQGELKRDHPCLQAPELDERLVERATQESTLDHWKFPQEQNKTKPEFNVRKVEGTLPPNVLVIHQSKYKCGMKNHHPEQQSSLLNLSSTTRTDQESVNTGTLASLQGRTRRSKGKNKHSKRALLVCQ
Method in brief: as §1

[3] = target: T3, USP27x (Homo sapiens, UniProt A6NNY8)
T3 sequence (A6NNY8 1-438): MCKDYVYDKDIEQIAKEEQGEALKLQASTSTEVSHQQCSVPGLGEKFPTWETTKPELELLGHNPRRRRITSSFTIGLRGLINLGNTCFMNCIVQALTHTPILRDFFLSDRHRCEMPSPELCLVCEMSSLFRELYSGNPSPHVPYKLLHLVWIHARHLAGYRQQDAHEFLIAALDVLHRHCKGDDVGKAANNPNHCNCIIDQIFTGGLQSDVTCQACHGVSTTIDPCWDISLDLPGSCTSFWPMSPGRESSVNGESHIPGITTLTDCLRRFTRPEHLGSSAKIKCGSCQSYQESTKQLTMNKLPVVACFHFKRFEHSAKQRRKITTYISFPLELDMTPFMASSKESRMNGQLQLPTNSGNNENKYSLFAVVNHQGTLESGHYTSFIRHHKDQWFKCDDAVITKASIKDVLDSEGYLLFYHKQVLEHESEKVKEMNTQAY
Method in brief: as §1

T1 sequence (P54252 whole entry): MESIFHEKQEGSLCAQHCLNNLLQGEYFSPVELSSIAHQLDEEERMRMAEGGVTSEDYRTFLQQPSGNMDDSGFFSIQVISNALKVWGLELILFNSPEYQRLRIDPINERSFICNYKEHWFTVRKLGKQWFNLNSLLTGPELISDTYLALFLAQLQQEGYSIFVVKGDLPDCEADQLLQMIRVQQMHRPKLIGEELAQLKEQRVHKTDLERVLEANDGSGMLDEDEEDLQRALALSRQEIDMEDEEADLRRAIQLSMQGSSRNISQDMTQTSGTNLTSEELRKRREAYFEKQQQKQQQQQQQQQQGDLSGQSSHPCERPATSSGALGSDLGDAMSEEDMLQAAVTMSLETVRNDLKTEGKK

## CC(C)(C)NS(=O)(=O)c1ccc(NC(=O)[C@H](Cc2ccccc2)NC(=O)c2ccc(F)cc2)cc1 [compound 39, CMPD-39]
[1]
  remaining activity at 1 µM: 102%
  remaining activity at 10 µM: 102%
  remaining activity at 100 µM: 101%
[2]
  remaining activity at 1 µM: 110%
  remaining activity at 10 µM: 119%
  remaining activity at 100 µM: 102%
[3]
  remaining activity at 1 µM: 108%
  remaining activity at 10 µM: 93.8%
  remaining activity at 100 µM: 93.4%
